Six compounds from ChEMBL document CHEMBL4622857, “Is GPR146 really the receptor for proinsulin C-peptide?” (Bioorg Med Chem Lett, 2020) can be followed below.

Activity calls are given as the source filed them. No cut-off for these calls is given here.

Data set [1] deals with G-protein coupled receptor 146 (Homo sapiens) (UniProt Q96CH1). The data set can be described thus: Activation of human GPR146 receptor expressed in HK2 cells assessed as increase in dynamic mass redistribution response by DMR assay. The data set is classed as cell-based.
For data set [2] the target is unchanged. The data set can be described thus: Activation of human GPR146 receptor expressed in HEK293 cells assessed as increase in dynamic mass redistribution response by DMR assay. The data set is classed as cell-based.
For data set [3] the target is unchanged. The data set can be described thus: Activation of human GPR146 expressed in CHO-K1 cells assessed as increase in dynamic mass redistribution response at 100 uM by DMR assay. It counts as cell-based.
Data set [4] addresses Glucagon-like peptide 1 receptor (Homo sapiens) (UniProt P43220). Description: Activation of human GLP1R expressed in CHO-K1 cells assessed as increase in dynamic mass redistribution response at 100 uM by DMR assay. It counts as cell-based.
Data set [5] deals with G-protein coupled receptor 146 (Homo sapiens) (UniProt Q96CH1). Description: Activation of human GPR146 expressed in HEK293 cells assessed as increase in dynamic mass redistribution response up to 100 uM by DMR assay. It counts as cell-based.
Data set [6] shares this target. Description: Activation of human GPR146 expressed in HK2 cells assessed as increase in dynamic mass redistribution response up to 100 uM by DMR assay. The data set is classed as cell-based.
Data set [7] has the same target. The data set can be described thus: Agonist activity at human GPR146 receptor expressed in HEK293 cells assessed as recruitment of beta-arrestin up to 100 uM by PathHunter assay. The data set is classed as cell-based.
The nature of data set [8]: Drug uptake in human HK2 cells at 0.1 to 0.5 uM using Cy3-labeled compound by fluorescence microscopy. The data set is classed as ADME, cell-based. The settings on record: hk-2, 0.5 µM.
Data set [9] in a line: Drug uptake in CHOK1 cells at 0.1 to 0.5 uM by using Cy3-labeled compound by fluorescence microsocpy. The settings on record: chinese hamster, cho-k1, 0.5 µM. The data set is classed as ADME, cell-based, Cricetulus griseus.
Data set [10] in a line: Drug uptake in CHOK1 cells expressing human GPR146 at 0.1 to 0.5 uM by using Cy3-labeled compound by fluorescence microsocpy. The data set is classed as ADME, cell-based, Cricetulus griseus. The following applies: chinese hamster, cho-k1, 0.5 µM.
Data set [11] has as its target G-protein coupled receptor 146 (Homo sapiens) (UniProt Q96CH1). Description: Activation of human GPR146 expressed in CHO-K1 cells assessed as increase in dynamic mass redistribution response upto 100 uM by DMR assay. It counts as cell-based.
Data set [12] addresses Glucagon-like peptide 1 receptor (Homo sapiens) (UniProt P43220). The data set can be described thus: Activation of human GLP1R expressed in CHO-K1 cells assessed as increase in dynamic mass redistribution response upto 100 uM by DMR assay. The data set is classed as cell-based.

Sequence of G-protein coupled receptor 146 (Homo sapiens) (Q96CH1 whole entry): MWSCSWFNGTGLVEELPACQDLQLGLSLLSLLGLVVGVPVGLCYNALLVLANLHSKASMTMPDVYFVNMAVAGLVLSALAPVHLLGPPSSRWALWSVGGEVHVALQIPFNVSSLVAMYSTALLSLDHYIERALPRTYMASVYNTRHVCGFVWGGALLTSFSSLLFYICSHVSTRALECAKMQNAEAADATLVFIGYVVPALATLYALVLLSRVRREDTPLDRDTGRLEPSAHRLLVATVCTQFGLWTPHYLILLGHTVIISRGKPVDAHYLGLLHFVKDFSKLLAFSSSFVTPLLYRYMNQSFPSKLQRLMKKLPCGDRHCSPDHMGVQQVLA
Sequence of Glucagon-like peptide 1 receptor (Homo sapiens) (P43220 whole entry): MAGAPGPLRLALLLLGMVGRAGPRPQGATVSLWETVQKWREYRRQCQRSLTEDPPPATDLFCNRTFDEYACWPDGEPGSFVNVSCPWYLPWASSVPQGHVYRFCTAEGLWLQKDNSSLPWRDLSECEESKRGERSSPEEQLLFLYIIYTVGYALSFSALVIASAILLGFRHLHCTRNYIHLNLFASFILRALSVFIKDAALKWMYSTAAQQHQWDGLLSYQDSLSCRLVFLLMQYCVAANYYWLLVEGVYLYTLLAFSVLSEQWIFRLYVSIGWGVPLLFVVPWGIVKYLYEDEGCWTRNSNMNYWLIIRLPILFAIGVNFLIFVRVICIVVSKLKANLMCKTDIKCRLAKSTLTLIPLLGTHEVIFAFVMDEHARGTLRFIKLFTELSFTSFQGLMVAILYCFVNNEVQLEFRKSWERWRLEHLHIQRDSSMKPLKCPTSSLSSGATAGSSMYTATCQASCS

For the compound `C[N+](C)(C)CCOC(N)=O`, the result in data set [1] and in [2] was Active.
In the case of `CC(C)C[C@H](NC(=O)[C@H](C)NC(=O)[C@H](CC(C)C)NC(=O)[C@@H]1CCCN1C(=O)[C@H](CCC(N)=O)NC(=O)[C@H](CC(C)C)NC(=O)[C@H](CO)NC(=O)CNC(=O)[C@H](C)NC(=O)CNC(=O)[C@@H]1CCCN1C(=O)CNC(=O)CNC(=O)CNC(=O)[C@H](CC(C)C)NC(=O)[C@H](CCC(=O)O)NC(=O)[C@@H](NC(=O)[C@H](CCC(N)=O)NC(=O)CNC(=O)[C@@H](NC(=O)[C@H](CCC(N)=O)NC(=O)[C@H](CC(C)C)NC(=O)[C@H](CC(=O)O)NC(=O)[C@H](CCC(=O)O)NC(=O)[C@H](C)NC(=O)[C@@H](N)CCC(=O)O)C(C)C)C(C)C)C(=O)N[C@@H](CCC(=O)O)C(=O)NCC(=O)N[C@@H](CO)C(=O)N[C@@H](CC(C)C)C(=O)N[C@@H](CCC(N)=O)C(=O)O` [HUMAN C-PEPTIDE], in [3], the result was Active. Also, the outcome in data set [4], in data set [5], in [6] and in [7] was inactive. In addition, the Drug uptake entry in data set [8], in [9] and in [10] was “Not Active” in each case.
For H-EGSLQ-OH, the result in data set [5], in data set [6] and in data set [7] was inactive. Further, the Drug uptake entry in data set [8], in data set [9] and in data set [10] was “Not Active” throughout. For the same compound, the outcome in [11] and in [12] was Active.
Turning to H-EVARQ-OH, the result in data set [3] and in data set [12] was Active. Besides, the outcome in data set [6] and in [7] was inactive. The Drug uptake entry in [8], in [9] and in data set [10] was “Not Active” throughout.
Turning to H-EVEDPQVEQLELGGSPGDLQTLALEVARQ-OH, the outcome in data set [5], in [6] and in [7] was inactive. The Drug uptake result in [8], in [9] and in data set [10] was “Not Active” throughout. Besides, the outcome in data set [11] and in data set [12] was Active.
With H-GADQPVGSEQQVQAGGLEGGLLLGLELPSEA-OH, the outcome in data set [5], in data set [6] and in [7] was inactive. Further, the Drug uptake entry in data set [8], in [9] and in [10] was “Not Active” each time. Also, the result in [11] and in data set [12] was Active.
